# According to ChEMBL document CHEMBL1121433, “New cyclopenta[a]naphthalene derivatives. Synthesis of 2-(carbamylmethyl)-8-hydroxy-3H-cyclopental[a]naphthalene as a possible deoxyribonucleic acid binding agent” (1980):
# Experiments:
# CCRF-CEM = assay: Tested for inhibition of compound against growth of CCRF-CEM cells at 1.0E-4 M; type: functional, Homo sapiens
# L1210 = assay: Tested for inhibition of compound against growth of L1210 cells at 3.2E-5 M; type: functional, Mus musculus
smiles,measurement,setting,value
NC(=O)CC1=Cc2c(ccc3ccc(O)cc23)C1,Inhibition,CCRF-CEM,25%
same,Inhibition,L1210,25%
